Assay results as given in US20090093069A1, “Topiramate Immunoassays” (ARK Diagnostics, Inc., priority 2007, published 2009).

tested on: rabbit polyclonal antibody #11341; assay: Coadministered drug interference study in the homogeneous enzyme immunoassay (HITACHI 917); format: binding; settings: 5.0 μg/mL drug added to human serum containing 20.0 μg/mL topiramate
Method: The antibody was added into the antibody diluent to prepare the antibody reagent. The antibody reagent consists of antibody as prepared above, buffer, stabilizers, preservatives, and the substrates for the enzyme conjugate NAD and glucose 6 phosphate. […] The enzyme conjugate reagent consists of the conjugate, buffer, stabilizers and preservatives.
(§1) The ARK Assay for topiramate is conducted using a liquid, ready-to-use, two-reagent kit. […] Topiramate containing sample is incubated with antibody reagent followed by the addition of the enzyme conjugate reagent. The enzyme conjugate activity decreases upon binding to the antibody. The enzyme conjugate, which is not bound to the antibody, catalyzes the oxidation of glucose 6-phosphate (G6P). The oxidation of G6P is coupled with the reduction of NAD^+ to NADH, which can be measured at 340 nm. The change in the absorbance at 340 nm can be measured spectrophotometrically. The topiramate concentration in a specimen can be measured in terms of G6PDH activity. The increase in the rate at 340 nm is due to the formation of NADH and is proportional to the enzyme conjugate activity. […] The assay rate increases with increasing the concentration of drug in the sample.
A high concentration of each coadministered drug was spiked into normal human serum with containing topiramate 20 μg/mL and assayed. Each sample was assayed in duplicate. […] The percentage concentration above 20.0 μg/mL of topiramate was calculated for each coadministered drug tested.

Row | SMILES | % Interference [(20.0 μg/mL Topiramate) − (Result)] ÷ (drug conc.) × 100
1 | NC(N)=Nc1nc(CSCCC(N)=NS(N)(=O)=O)cs1 [Famotidine] | −0.2%

same assay, conditions: 10.0 μg/mL drug added to human serum containing 20.0 μg/mL topiramate

Row | SMILES | % Interference [(20.0 μg/mL Topiramate) − (Result)] ÷ (drug conc.) × 100
2 | NS(=O)(=O)c1cc(C(=O)O)c(NCc2ccco2)cc1Cl [Furosemide] | 0.10%

same assay, conditions: 50.0 μg/mL drug added to human serum containing 20.0 μg/mL topiramate

Row | SMILES | % Interference [(20.0 μg/mL Topiramate) − (Result)] ÷ (drug conc.) × 100
3 | CC(=O)Nc1nnc(S(N)(=O)=O)s1 [Acetazolamide] | 0.56%
4 | CC(=O)Nc1ccc(O)cc1 [Acetominophen] | −0.38%
5 | CC(C)NCC(O)COc1ccc(CC(N)=O)cc1 (stereo not drawn) [Atenolol] | −0.40%
6 | O=C1CN=C(c2ccccc2Cl)c2cc([N+](=O)[O-])ccc2N1 [Clonazepam] | 0.70%
7 | CN1C(=O)CN=C(c2ccccc2)c2cc(Cl)ccc21 [Diazepam] | 0.64%
8 | CC(C)Cc1ccc(C(C)C(=O)O)cc1 (stereo not drawn) [Ibuprofen] | 2.30%
9 | O=C1NC(=O)C(c2ccccc2)(c2ccccc2)N1 [Phenytoin] | 0.32%

same assay, conditions: 100.0 μg/mL drug added to human serum containing 20.0 μg/mL topiramate

Row | SMILES | % Interference [(20.0 μg/mL Topiramate) − (Result)] ÷ (drug conc.) × 100
10 | CC(=O)Oc1ccccc1C(=O)O [Acetylsalicyclic Acid] | 0.25%
11 | Cn1c(=O)c2c(ncn2C)n(C)c1=O [Caffeine] | 0.35%
12 | NC(=O)N1c2ccccc2C=Cc2ccccc21 [Carbamazepine] | −0.43%
13 | NS(=O)(=O)c1cc(C2(O)NC(=O)c3ccccc32)ccc1Cl (stereo not drawn) [Chlorthalidone] | 0.16%
14 | NCC1(CC(=O)O)CCCCC1 [Gabapentin] | −0.49%
15 | Nc1nnc(-c2cccc(Cl)c2Cl)c(N)n1 [Lamotrogine] | −1.02%
16 | COCCc1ccc(OCC(O)CNC(C)C)cc1 (stereo not drawn) [Metoprolol] | 0.35%
17 | CCC1(c2ccccc2)C(=O)NC(=O)NC1=O [Phenobarbitol] | 1.08%
18 | CCC1(c2ccccc2)C(=O)NCNC1=O [Primidone] | −1.83%
19 | COc1ccc(CCN(C)CCCC(C#N)(c2ccc(OC)c(OC)c2)C(C)C)cc1OC (stereo not drawn) [Verapamil] | 1.07%

same assay, conditions: 200.0 μg/mL drug added to human serum containing 20.0 μg/mL topiramate

Row | SMILES | % Interference [(20.0 μg/mL Topiramate) − (Result)] ÷ (drug conc.) × 100
20 | CC[C@@H](C(N)=O)N1CCCC1=O [Levetiracetam] | −0.45%
21 | CCCC(CCC)C(=O)O [Valproic Acid] | 0.50%
22 | NS(=O)(=O)Cc1noc2ccccc12 [Zonisamide] | 0.08%

same assay, conditions: 500.0 μg/mL drug added to human serum containing 20.0 μg/mL topiramate

Row | SMILES | % Interference [(20.0 μg/mL Topiramate) − (Result)] ÷ (drug conc.) × 100
23 | CCC1(C)CC(=O)NC1=O (stereo not drawn) [Ethosuxamide] | −0.09%
24 | NC(=O)OCC(COC(N)=O)c1ccccc1 [Felbamate] | 0.20%

same assay, conditions: 750.0 μg/mL drug added to human serum containing 20.0 μg/mL topiramate

Row | SMILES | % Interference [(20.0 μg/mL Topiramate) − (Result)] ÷ (drug conc.) × 100
25 | O=C(O)c1ccccc1O [Salicylic Acid] | −5.73%
26 | CCCCNC(=O)NS(=O)(=O)c1ccc(C)cc1 [Tolbutamide] | −0.08%

same assay, conditions: 2000.0 μg/mL drug added to human serum containing 20.0 μg/mL topiramate

Row | SMILES | % Interference [(20.0 μg/mL Topiramate) − (Result)] ÷ (drug conc.) × 100
27 | Nc1ccc(S(N)(=O)=O)cc1 [Sulfanilamide] | −0.16%

tested on: antibodies raised with immunogens (10-KLH, 12-KLH, 12-L-KLH, 19-KLH, 22-KLH and 25-KLH); assay: Enzyme-based assay format, reactivity of antibodies raised with the immunogens; format: binding; settings: not given
Text: All the prepared haptens have utility for KLH and G6PDH bio-conjugation. immunogens (10-KLH, 12-KLH, 12-L-KLH, 19-KLH, 22-KLH and 25-KLH) were used to raise antibodies.

Row | SMILES | reactivity of the antibodies
28 | CC1(C)O[C@@H]2[C@@H](CO[C@@]3(CO)OC(C)(C)O[C@@H]23)O1 [diacetonefructose] | good reactivity

tested on: antibody from rabbit #11341; assay: Crossreactivity to topiramate metabolites in the homogeneous enzyme immunoassay (HITACHI 917); format: binding; settings: metabolite 50.0 μg/mL, in the presence of 20 μg/mL topiramate
Method: % Crossreactivity=100×(“apparent concentration of measurand”/“concentration of crossreactant”)
as §1
The apparent topiramate concentration for the metabolite is the difference in concentration with metabolite minus the concentration without metabolite.

Row | SMILES | % Cross Reactivity
29 | CC1(C)O[C@H]2[C@@H]3O[C@](C)(CO)O[C@@H]3CO[C@@]2(COS(N)(=O)=O)O1 [9-OH-Topiramate, 9-hydroxytopiramate] | 3.18%
30 | CC1(C)O[C@H]2[C@@H]3O[C@@](C)(CO)O[C@@H]3CO[C@@]2(COS(N)(=O)=O)O1 [10-OH-Topiramate, 10-hydroxytopiramate] | 3.20%
